# Experimental data: US10246411B2, “(Z)-3,4,5-trimethoxystyrylbenzenesulfonamides as potential anticancer agents” (COUNCIL OF SCIENTIFIC & INDUSTRIAL RESEARCH, priority 2014, dated 2019)
# Experiments:
# HL-60(TB) = test: In vitro cytotoxicity (NCI protocol, SRB), HL-60(TB); type: cell-based; conditions: Homo sapiens, Leukemia HL-60(TB), 48 h exposure
# SR = test: In vitro cytotoxicity (NCI protocol, SRB), SR; conditions: Homo sapiens, 48 h
# KM12 = test: In vitro cytotoxicity (NCI protocol, SRB), KM12; conditions: Homo sapiens, KM12, 48 h
# K-562 = test: In vitro cytotoxicity (NCI protocol, SRB), K-562; conditions: Homo sapiens, K562, 48 h
# ACHN = test: In vitro cytotoxicity (NCI protocol, SRB), ACHN; conditions: Homo sapiens, 48 h
# MCF7 = test: In vitro cytotoxicity (NCI protocol, SRB), MCF7; conditions: Homo sapiens, MCF7, 48 h
# HOP92 = test: In vitro cytotoxicity (NCI protocol, SRB), HOP92; conditions: Homo sapiens, HOP-92, 48 h
# 786-0 = test: In vitro cytotoxicity (NCI protocol, SRB), 786-0; conditions: Homo sapiens, 786-0, 48 h
# SN12C = test: In vitro cytotoxicity (NCI protocol, SRB), SN12C; conditions: Homo sapiens, 48 h
# T-47D = test: In vitro cytotoxicity (NCI protocol, SRB), T-47D; conditions: Homo sapiens, T47D, 48 h
# HCT-15 = test: In vitro cytotoxicity (NCI protocol, SRB), HCT-15; conditions: Homo sapiens, HCT-15, 48 h
# SF-539 = test: In vitro cytotoxicity (NCI protocol, SRB), SF-539; conditions: Homo sapiens, 48 h
# DU-145 = test: In vitro cytotoxicity (NCI protocol, SRB), DU-145; conditions: Homo sapiens, DU-145, 48 h
# BT-549 = test: In vitro cytotoxicity (NCI protocol, SRB), BT-549; conditions: Homo sapiens, BT-549, 48 h
# NCI-H23 = test: In vitro cytotoxicity (NCI protocol, SRB), NCI-H23; conditions: Homo sapiens, NCI-H23, 48 h
# HCT-116 = test: In vitro cytotoxicity (NCI protocol, SRB), HCT-116; conditions: Homo sapiens, HCT-116, 48 h
# CCRF-CEM = test: In vitro cytotoxicity (NCI protocol, SRB), CCRF-CEM; conditions: Homo sapiens, 48 h
# SNB -75 = test: In vitro cytotoxicity (NCI protocol, SRB), SNB -75; conditions: Homo sapiens, SNB-75, 48 h
# UACC-62 = test: In vitro cytotoxicity (NCI protocol, SRB), UACC-62; conditions: Homo sapiens, UACC-62, 48 h
# OVCAR-8 = test: In vitro cytotoxicity (NCI protocol, SRB), OVCAR-8; conditions: Homo sapiens, OVCAR-8, 48 h
# SK-OV-3 = test: In vitro cytotoxicity (NCI protocol, SRB), SK-OV-3; conditions: Homo sapiens, SK-OV-3, 48 h
# RXF 393 = test: In vitro cytotoxicity (NCI protocol, SRB), RXF 393; conditions: Homo sapiens, RXF 393, 48 h
# NCI-H226 = test: In vitro cytotoxicity (NCI protocol, SRB), NCI-H226; conditions: Homo sapiens, NCI-H226, 48 h
# NCIH322M = test: In vitro cytotoxicity (NCI protocol, SRB), NCIH322M; conditions: Homo sapiens, NCI-H322M, 48 h
# COLO-205 = test: In vitro cytotoxicity (NCI protocol, SRB), COLO-205; conditions: Homo sapiens, COLO 205, 48 h
# LOX IMVI = test: In vitro cytotoxicity (NCI protocol, SRB), LOX IMVI; conditions: Homo sapiens, 48 h
# SK-MEL-2 = test: In vitro cytotoxicity (NCI protocol, SRB), SK-MEL-2; conditions: Homo sapiens, SK-MEL-2, 48 h
# MDA-MB-231/ATCC = test: In vitro cytotoxicity (NCI protocol, SRB), MDA-MB-231/ATCC; conditions: Homo sapiens, MDA-MB-231, 48 h
# MDA-MB-435 [1] = test: In vitro cytotoxicity (NCI protocol, SRB), MDA-MB-435 (melanoma panel); conditions: Homo sapiens, MDA-MB-435, 48 h, Melanoma MDA-MB-435, 48 h exposure
# MDA-MB-435 [2] = test: In vitro cytotoxicity (NCI protocol, SRB), MDA-MB-435 (breast panel line); conditions: Homo sapiens, MDA-MB-435, 48 h
compound,measurement,setting,value
"COc1cc(/C=C\c2cc(OC)c(OC)c(OC)c2)cc(NS(=O)(=O)c2ccc(Cl)cc2)c1OC [13c, (Z)-4-chloro-N-(2,3-dimethoxy-5-(3,4,5-trimethoxystyryl)phenyl)benzenesulfonamide]",GI50,HL-60(TB),249 nM
same,GI50,SR,406 nM
same,GI50,KM12,572 nM
same,GI50,K-562,306 nM
same,GI50,ACHN,586 nM
same,GI50,MCF7,375 nM
same,GI50,HOP92,720 nM
same,GI50,786-0,666 nM
same,GI50,SN12C,750 nM
same,GI50,T-47D,381 nM
same,GI50,HCT-15,399 nM
same,GI50,SF-539,303 nM
same,GI50,DU-145,507 nM
same,GI50,BT-549,966 nM
same,GI50,NCI-H23,710 nM
same,GI50,HCT-116,469 nM
same,GI50,CCRF-CEM,388 nM
same,GI50,SNB -75,227 nM
same,GI50,UACC-62,435 nM
same,GI50,OVCAR-8,600 nM
same,GI50,SK-OV-3,449 nM
same,GI50,RXF 393,272 nM
same,GI50,NCI-H226,13.5 µM
same,GI50,NCIH322M,759 nM
same,GI50,COLO-205,252 nM
same,GI50,LOX IMVI,566 nM
same,GI50,SK-MEL-2,613 nM
same,GI50,MDA-MB-231/ATCC,1160 nM
same,GI50,MDA-MB-435 [1],188 nM
same,GI50,MDA-MB-435 [2],271 nM
